Laboratory results as given in ChEMBL document CHEMBL1125035, “Synthesis and biological activity of novel vitamin D analogues: 24,24-difluoro-25-hydroxy-26,27-dimethylvitamin D3 and 24,24-difluoro-1 alpha,25-dihydroxy-26,27-dimethylvitamin D3” (1990).

What was measured:
Rattus norvegicus [1] = assay: Ability to mobilize Bone-Calcium transport, following the administration of compound in rats at a concentration of 50 pmol at 47 hr.; type: functional, organism-based
Rattus norvegicus [2] = assay: Ability to stimulate intestinal-calcium transport by the administration of compound in rats at a concentration of 50 pmol at 13 hr.; type: functional, Intestine
Rattus norvegicus [3] = assay: Ability to stimulate intestinal-calcium transport by the administration of compound in rats at a concentration of 5 pmol at 72 hr.; type: functional, Intestine
Rattus norvegicus [4] = assay: Ability to stimulate intestinal-calcium transport by the administration of compound in rats at a concentration of 500 pmol at 13 hr.; type: functional, Intestine
Rattus norvegicus [5] = assay: Ability to mobilize Bone-Calcium transport, following the administration of compound in rats at a concentration of 5000 pmol at 72 hr.; type: functional, organism-based
Rattus norvegicus [6] = assay: Ability to stimulate intestinal-calcium transport by the administration of compound in rats at a concentration of 500 pmol at 72 hr.; type: functional, Intestine
Rattus norvegicus [7] = assay: Ability to mobilize Bone-Calcium transport, following the administration of compound in rats at a concentration of 5 pmol at 72 hr.; type: functional, organism-based
Rattus norvegicus [8] = assay: Ability to mobilize Bone-Calcium transport, following the administration of compound in rats at a concentration of 50 pmol at 72 hr.; type: functional, organism-based
Rattus norvegicus [9] = assay: Ability to mobilize Bone-Calcium transport, following the administration of compound in rats at a concentration of 500 pmol at 72 hr.; type: functional, organism-based
Rattus norvegicus [10] = assay: Ability to stimulate intestinal-calcium transport by the administration of compound in rats at a concentration of 5 pmol at 13 hr.; type: functional, Intestine
Rattus norvegicus [11] = assay: Ability to stimulate intestinal-calcium transport by the administration of compound in rats at a concentration of 5 pmol at 47 hr.; type: functional, Intestine
Rattus norvegicus [12] = assay: Ability to mobilize Bone-Calcium transport, following the administration of compound in rats at a concentration of 5 pmol at 47 hr.; type: functional, organism-based
Rattus norvegicus [13] = assay: Ability to stimulate intestinal-calcium transport by the administration of compound in rats at a concentration of 5000 pmol at 47 hr.; type: functional, Intestine
Rattus norvegicus [14] = assay: Ability to mobilize Bone-Calcium transport, following the administration of compound in rats at a concentration of 5000 pmol at 47 hr.; type: functional, organism-based
Rattus norvegicus [15] = assay: Ability to stimulate intestinal-calcium transport by the administration of compound in rats at a concentration of 50 pmol at 72 hr.; type: functional, Intestine
Rattus norvegicus [16] = assay: Ability to stimulate intestinal-calcium transport by the administration of compound in rats at a concentration of 5000 pmol at 13 hr.; type: functional, Intestine
Rattus norvegicus [17] = assay: Ability to mobilize Bone-Calcium transport, following the administration of compound in rats at a concentration of 500 pmol at 13 hr.; type: functional, organism-based
Rattus norvegicus [18] = assay: Ability to mobilize Bone-Calcium transport, following the administration of compound in rats at a concentration of 50 pmol at 69 hr.; type: functional, organism-based
Rattus norvegicus [19] = assay: Ability to mobilize Bone-Calcium transport, following the administration of compound in rats at a concentration of 5000 pmol at 12 hr.; type: functional, organism-based
Rattus norvegicus [20] = assay: Ability to mobilize Bone-Calcium transport, following the administration of compound in rats at a concentration of 500 pmol at 69 hr.; type: functional, organism-based
Rattus norvegicus [21] = assay: Ability to stimulate intestinal-calcium transport by the administration of compound in rats at a concentration of 50 pmol at 48 hr.; type: functional, Intestine
Rattus norvegicus [22] = assay: Ability to mobilize Bone-Calcium transport, following the administration of compound in rats at a concentration of 5 pmol at 12 hr.; type: functional, organism-based
Rattus norvegicus [23] = assay: Ability to stimulate intestinal-calcium transport by the administration of compound in rats at a concentration of 50 pmol at 69 hr.; type: functional, Intestine
Rattus norvegicus [24] = assay: Ability to mobilize Bone-Calcium transport, following the administration of compound in rats at a concentration of 5000 pmol at 69 hr.; type: functional, organism-based
Rattus norvegicus [25] = assay: Ability to stimulate intestinal-calcium transport by the administration of compound in rats at a concentration of 5000 pmol at 48 hr.; type: functional, Intestine
Rattus norvegicus [26] = assay: Ability to mobilize Bone-Calcium transport, following the administration of compound in rats at a concentration of 50 pmol at 12 hr.; type: functional, organism-based
Rattus norvegicus [27] = assay: Ability to mobilize Bone-Calcium transport, following the administration of compound in rats at a concentration of 5 pmol at 48 hr.; type: functional, organism-based
Rattus norvegicus [28] = assay: Ability to mobilize Bone-Calcium transport, following the administration of compound in rats at a concentration of 500 pmol at 12 hr.; type: functional, organism-based
Rattus norvegicus [29] = assay: Ability to stimulate intestinal-calcium transport by the administration of compound in rats at a concentration of 50 pmol at 12 hr.; type: functional, Intestine
Rattus norvegicus [30] = assay: Ability to stimulate intestinal-calcium transport by the administration of compound in rats at a concentration of 5000 pmol at 12 hr.; type: functional, Intestine
Rattus norvegicus [31] = assay: Ability to stimulate intestinal-calcium transport by the administration of compound in rats at a concentration of 500 pmol at 12 hr.; type: functional, Intestine
Rattus norvegicus [32] = assay: Ability to stimulate intestinal-calcium transport by the administration of compound in rats at a concentration of 500 pmol at 48 hr.; type: functional, Intestine
Rattus norvegicus [33] = assay: Ability to stimulate intestinal-calcium transport by the administration of compound in rats at a concentration of 5000 pmol at 69 hr.; type: functional, Intestine
Rattus norvegicus [34] = assay: Ability to stimulate intestinal-calcium transport by the administration of compound in rats at a concentration of 5 pmol at 48 hr.; type: functional, Intestine
Rattus norvegicus [35] = assay: Ability to mobilize Bone-Calcium transport, following the administration of compound in rats at a concentration of 50 pmol at 48 hr.; type: functional, organism-based
Rattus norvegicus [36] = assay: Ability to mobilize Bone-Calcium transport, following the administration of compound in rats at a concentration of 500 pmol at 48 hr.; type: functional, organism-based
Rattus norvegicus [37] = species: Rattus norvegicus; assay: Calcium binding protein induction in duodenal organ culture at a concentration of 1 nM in Male Albino rats; type: functional
Rattus norvegicus [38] = species: Rattus norvegicus; assay: Calcium binding protein induction in duodenal organ culture at a concentration of 100 nM in Male Albino rats; type: functional
Rattus norvegicus [39] = species: Rattus norvegicus; assay: Calcium binding protein induction in duodenal organ culture at a concentration of 10 nM in Male Albino rats; type: functional
[40] = Relative potency against calcium binding protein induction in duodenal organ culture at a concentration of 10 nM compared to 1,25-(OH)2-D3 in Male Albino rats; type: functional

SMILES	Serum Ca2+ (Rattus norvegicus [1])	Serosal/Mucosal Ca (Rattus norvegicus [2])	Serosal/Mucosal Ca (Rattus norvegicus [3])	Serosal/Mucosal Ca (Rattus norvegicus [4])	Serum Ca2+ (Rattus norvegicus [5])	Serosal/Mucosal Ca (Rattus norvegicus [6])	Serum Ca2+ (Rattus norvegicus [7])	Serum Ca2+ (Rattus norvegicus [8])	Serum Ca2+ (Rattus norvegicus [9])	Serosal/Mucosal Ca (Rattus norvegicus [10])	Serosal/Mucosal Ca (Rattus norvegicus [11])	Serum Ca2+ (Rattus norvegicus [12])	Serosal/Mucosal Ca (Rattus norvegicus [13])	Serum Ca2+ (Rattus norvegicus [14])	Serosal/Mucosal Ca (Rattus norvegicus [15])	Serosal/Mucosal Ca (Rattus norvegicus [16])	Serum Ca2+ (Rattus norvegicus [17])	Serum Ca2+ (Rattus norvegicus [18])	Serum Ca2+ (Rattus norvegicus [19])	Serum Ca2+ (Rattus norvegicus [20])	also measured
C=C1CC[C@H](O)C/C1=C/C=C1\CCC[C@]2(C)[C@@H]([C@H](C)CCCC(C)(C)O)CC[C@@H]12 [CALCIFEDIOL ANHYDROUS]	4.68 mg/dL	3.75	3.59	3.6	6.5 mg/dL	9.89	4.32 mg/dL	4.52 mg/dL	5.04 mg/dL	2.22	3.41	4.66 mg/dL	11.01	6.24 mg/dL	8.87	5.43	6.22 mg/dL				
C=C1/C(=C\C=C2/CCC[C@]3(C)[C@@H]([C@H](C)CCCC(C)(C)O)CC[C@@H]23)C[C@@H](O)C[C@@H]1O [CALCITRIOL]																		4.55 mg/dL	6.14 mg/dL	4.48 mg/dL	Serosal/Mucosal Ca (Rattus norvegicus [21]): 4.71; Serum Ca2+ (Rattus norvegicus [22]): 4.38 mg/dL; Serosal/Mucosal Ca (Rattus norvegicus [23]): 5.69; Serum Ca2+ (Rattus norvegicus [24]): 4.78 mg/dL; Serosal/Mucosal Ca (Rattus norvegicus [25]): 7.22; Serum Ca2+ (Rattus norvegicus [26]): 5.58 mg/dL; Serum Ca2+ (Rattus norvegicus [27]): 4.08 mg/dL; Serum Ca2+ (Rattus norvegicus [28]): 6.1 mg/dL; Serosal/Mucosal Ca (Rattus norvegicus [29]): 3.23; Serosal/Mucosal Ca (Rattus norvegicus [30]): 7; Serosal/Mucosal Ca (Rattus norvegicus [31]): 4.06; Serosal/Mucosal Ca (Rattus norvegicus [32]): 5.98; Serosal/Mucosal Ca (Rattus norvegicus [33]): 4.99; Serosal/Mucosal Ca (Rattus norvegicus [34]): 3.19; Serum Ca2+ (Rattus norvegicus [35]): 4.54 mg/dL; Serum Ca2+ (Rattus norvegicus [36]): 4.35 mg/dL
C=C1/C(=C\C=C2/CCC[C@]3(C)[C@@H]([C@H](C)CCC(F)(F)C(O)(CC)CC)CC[C@@H]23)C[C@@H](O)C[C@@H]1O																		4.02 mg/dL	6.4 mg/dL	4.87 mg/dL	Serosal/Mucosal Ca (Rattus norvegicus [21]): 4.25; Serum Ca2+ (Rattus norvegicus [22]): 4.34 mg/dL; Serosal/Mucosal Ca (Rattus norvegicus [23]): 3.04; Serum Ca2+ (Rattus norvegicus [24]): 4.82 mg/dL; Serosal/Mucosal Ca (Rattus norvegicus [25]): 8; Serum Ca2+ (Rattus norvegicus [26]): 5.5 mg/dL; Serum Ca2+ (Rattus norvegicus [27]): 3.98 mg/dL; Serum Ca2+ (Rattus norvegicus [28]): 6.12 mg/dL; Serosal/Mucosal Ca (Rattus norvegicus [29]): 4.41; Serosal/Mucosal Ca (Rattus norvegicus [30]): 8.39; Serosal/Mucosal Ca (Rattus norvegicus [31]): 8.92; Serosal/Mucosal Ca (Rattus norvegicus [32]): 5.39; Serosal/Mucosal Ca (Rattus norvegicus [33]): 8.84; Serosal/Mucosal Ca (Rattus norvegicus [34]): 2.09; Serum Ca2+ (Rattus norvegicus [35]): 4.08 mg/dL; Serum Ca2+ (Rattus norvegicus [36]): 4.94 mg/dL
C=C1CC[C@H](O)C/C1=C/C=C1\CCC[C@]2(C)[C@@H]([C@H](C)CCC(F)(F)C(O)(CC)CC)CC[C@@H]12	4.63 mg/dL	2.18	2.2	5.85	5.84 mg/dL	7.29	4.2 mg/dL	4.64 mg/dL	4.38 mg/dL	2.3	2.59	4.34 mg/dL	11.06	6.16 mg/dL	2.84	4.84	5.14 mg/dL				Ca2+ binding protein (Rattus norvegicus [37]): 10.1 ug (100mg of duodenum)-1; Ca2+ binding protein (Rattus norvegicus [38]): 66.7 ug (100mg of duodenum)-1; Ca2+ binding protein (Rattus norvegicus [39]): 22.4 ug (100mg of duodenum)-1; Relative potency [40]: 4.5
